Assay results from US20110263631A1, “COMBINATION OF A SEROTONIN AND NOREPINEPHRINE REUPTAKE INHIBITOR AND AN OPIOID AGONIST FOR THE TREATMENT OF PAIN” (priority 2010, published 2011).

Legend:
rat formalin pain model = experiment: Rat formalin model of pain (inhibition of formalin-induced flinching); format: in vivo; details: for SNRI Dose Response ED50 (Confidence Interval): phase 2A, SNRI IP alone or plus 1 mg/kg morphine SC, 95% CI
[1] = Pharmacokinetic studies: plasma concentrations alone or in combination; details: rat; for Plasma concentrations of SNRI alone versus in combination with morphine: compound 1 3 mg/kg, duloxetine 10 mg/kg or atomoxetine 10 mg/kg IP, morphine 3 mg/kg SC or vehicle SC
rat SERT = molecular target: T1, rat SERT (Rattus norvegicus, UniProt P31652); experiment: Ex vivo SERT transporter occupancy ([3H]-citalopram association); format: in vivo; details: 1.25 h post dose, ± Standard Error; for receptor occupancy at 3 mg/kg: 3 mg/kg IP; for receptor occupancy at 10 mg/kg: 10 mg/kg IP
T1 construct: from tissue; host or cells: rat cortex or lumbar spinal cord homogenate from dosed animals
T1 sequence (P31652 whole entry): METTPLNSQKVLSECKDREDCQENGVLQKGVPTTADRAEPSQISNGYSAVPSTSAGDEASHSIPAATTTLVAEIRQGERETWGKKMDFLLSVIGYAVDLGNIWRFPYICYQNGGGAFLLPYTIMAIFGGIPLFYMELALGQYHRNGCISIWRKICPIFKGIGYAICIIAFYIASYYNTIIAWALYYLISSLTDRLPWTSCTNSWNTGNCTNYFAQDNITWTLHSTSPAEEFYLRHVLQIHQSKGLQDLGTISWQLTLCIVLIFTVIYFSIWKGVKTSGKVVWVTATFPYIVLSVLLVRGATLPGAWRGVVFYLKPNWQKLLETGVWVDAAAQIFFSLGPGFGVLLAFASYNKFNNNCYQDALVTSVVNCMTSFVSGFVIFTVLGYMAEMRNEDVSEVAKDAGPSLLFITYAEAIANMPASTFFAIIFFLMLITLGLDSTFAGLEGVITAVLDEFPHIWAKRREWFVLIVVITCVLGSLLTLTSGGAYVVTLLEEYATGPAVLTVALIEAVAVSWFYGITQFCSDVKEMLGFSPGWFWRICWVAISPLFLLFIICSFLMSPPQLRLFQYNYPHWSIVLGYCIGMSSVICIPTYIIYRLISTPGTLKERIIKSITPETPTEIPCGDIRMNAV
Experimental: (§1) To monitor SERT and NET transporter occupancy, an ex vivo occupancy assay was used in which the initial rate of association of a SERT- or NET-selective radioligand, respectively, to the tissue homogenates was monitored. The initial rate of association of radioligand is directly proportional to the level of free (unoccupied) transporter.
Rats were euthanized 1.25 hours post compound administration by decapitation. Following decapitation, the brain was removed and placed on to a clean metal block, on ice. A parasagittal cut was made through the entire brain, around 4 mm lateral to the midline. The lateral cortex pieces were discarded. A midsagittal cut was made through the entire length of the brain. The block of brain corresponding to each hemisphere was then placed on to the respective lateral cut surface, such that the midsagittal surface was uppermost. A single cut was made parallel to, and about 1 mm dorsal to, the corpus callosum to remove a cortex piece, which was frozen on dry ice prior to storage at −80° C. The spinal cord was harvested by hydraulic extrusion with PBS. An 18 gauge needle was inserted into the spinal column near the iliac crest and the buffer injected into the spinal column with the resultant extrusion of the spinal cord, intact. The lumbar spinal cord (approximately 1-1.5 cm in length) was rapidly dissected and frozen on dry ice prior to storage at −80° C.
The frozen tissue pieces were weighed and kept on dry ice prior to homogenization. […]
(§2) Total and non-specific binding was determined at a single concentration of radioligand (in parentheses): [^3H]-citalopram (3 nM) and [^3H]-nisoxetine (5 nM) at SERT and NET, respectively. […] Filter plates were washed six times with wash buffer (ice-cold 50 mM Tris-HCl, 0.9% NaCl, at 4° C.) to remove unbound radioactivity. Plates were dried, 35-45 μL Microscint-20 liquid scintillation fluid (Packard BioScience Co., Meriden, Conn.) was added to each well, and plates were counted in a Packard Topcount liquid scintillation counter (Packard BioScience Co., Meriden, Conn.).
Specific binding was calculated using total (in the absence of test compound) and non-specific (determined as described above) binding from the same plate as follows: specific binding=value−non-specific binding. Data then were analyzed by linear regression analysis with the GraphPad Prism Software package (GraphPad Software, Inc., San Diego, Calif.). The initial rates of association of [^3H]-citalopram or [^3H]-nisoxetine, equal to the slope of the straight line, were determined by fitting data points, specific binding (cpm) versus time (min). The average of the initial rates of [^3H]-citalopram or [^3H]-nisoxetine association from vehicle-dosed animals was calculated. […]

hNET = hNET (Homo sapiens, UniProt P23975); experiment: 3H-NE neurotransmitter uptake assay in HEK-293 cells expressing hNET
Chain of hNET (P23975 whole entry): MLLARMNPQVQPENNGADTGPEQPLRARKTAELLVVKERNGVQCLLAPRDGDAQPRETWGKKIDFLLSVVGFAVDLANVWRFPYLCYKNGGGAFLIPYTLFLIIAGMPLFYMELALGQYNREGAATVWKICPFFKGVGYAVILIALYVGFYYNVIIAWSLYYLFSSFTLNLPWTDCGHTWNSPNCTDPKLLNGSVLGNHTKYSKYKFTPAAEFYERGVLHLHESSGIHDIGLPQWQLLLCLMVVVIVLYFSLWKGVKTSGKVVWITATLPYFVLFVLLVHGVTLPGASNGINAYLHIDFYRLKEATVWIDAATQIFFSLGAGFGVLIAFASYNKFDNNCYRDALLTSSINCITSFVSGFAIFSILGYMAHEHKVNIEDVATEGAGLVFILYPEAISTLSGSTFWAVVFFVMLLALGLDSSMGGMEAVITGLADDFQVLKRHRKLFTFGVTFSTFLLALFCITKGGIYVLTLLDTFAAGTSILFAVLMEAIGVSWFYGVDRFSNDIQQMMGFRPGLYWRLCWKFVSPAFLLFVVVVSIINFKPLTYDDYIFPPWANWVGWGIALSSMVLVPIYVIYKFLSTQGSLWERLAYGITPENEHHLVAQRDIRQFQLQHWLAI
Experimental: (§3) Neurotransmitter uptake assays were used to measure inhibition of ^3H-serotonin (^3H-5-HT) and ^3H-norepinephrine (^3H-NE) uptake into cells expressing the respective human recombinant transporter (hSERT or hNET) and into rat brain synaptosomal preparations in order to determine the pIC50 values of test compounds at the human and rat monoamine transporters, respectively.
HEK-293 derived cell lines stably-transfected with hSERT or, hNET, respectively, were grown in Dulbecco's modified Eagles Medium (DMEM) supplemented with 10% dialyzed FBS (for hSERT) or FBS (for hNET), 100 μg/ml penicillin, 100 μg/ml streptomycin, 2 mM L-glutamine and 250 μg/ml of the aminoglycoside antibiotic G418 in a 5% CO2 humidified incubator at 37° C. When cultures reached 50-80% confluence, the cells were washed thoroughly in PBS (without Ca^2+ and Mg^2+) and lifted with 5 mM EDTA in PBS. Cells were harvested by centrifugation at 1100 rpm for 5 minutes, the supernatant was discarded, and the cell pellet resuspended, by gentle trituration, in room temperature Krebs-Ringer bicarbonate buffer containing HEPES (10 mM), CaCl2 (2.2 mM), ascorbic acid (200 μM) and pargyline (200 μM), pH 7.4. The final concentration of cells in the cell suspension was 7.5×10^4 cells/ml for hSERT and 12.5×10^4 cells/ml for hNET. […]
(§4) Following a 10 minute incubation for cells (6 minute incubation for rat synaptosomes) at 37° C. with radioligand, the reactions were terminated by rapid filtration over a 96-well UniFilter GF/B plate, pretreated with 1% BSA, and washed 6 times with 650 μl wash buffer (ice cold PBS). Plates were dried, 35-45 μl of MicroScint™-20 (Perkin Elmer) added and incorporated radioactivity quantitated via liquid scintillation counting. Inhibition curves were analyzed using the GraphPad Prism Software package (GraphPad Software, Inc., San Diego, Calif.).

SERT = SERT (Rattus norvegicus, UniProt P31652); experiment: 3H-5-HT uptake assay in rat brain synaptosomal preparations
Chain of SERT (P31652 whole entry): as the sequence (P31652 whole entry) above
Text: as §3
Rats were euthanized by decapitation. Rat freshly dissected cortical tissue pieces were suspended in ice-cold Sucrose Buffer at a ratio of 100 mg wet weight of tissue per 1 mL of buffer. The tissues were homogenized using a pre-chilled glass dounce homogenizer for 20 strokes. The homogenate was centrifuged at 1,000×g (10 min at 4° C.). […] Synaptosomes were resuspended in Sucrose Buffer and the protein concentration was determined by the method of Bradford (Bradford (1976) Analytical Biochemistry 72:24854) and used immediately following preparation. […]
Following a 10 minute incubation for cells (6 minute incubation for rat synaptosomes) at 37° C. with radioligand, the reactions were terminated by rapid filtration over a 96-well UniFilter GF/B plate, pretreated with 1% BSA, and washed 6 times with 650 μl wash buffer (ice cold PBS). Plates were dried, 35-45 μl of MicroScint™-20 (Perkin Elmer) added and incorporated radioactivity quantitated via liquid scintillation counting. […]

rat NET = molecular target: T2, rat NET (Rattus norvegicus, UniProt Q63380); experiment: Ex vivo NET transporter occupancy ([3H]-nisoxetine association); format: in vivo; details: lumbar spinal cord, 1.25 h post dose, ± Standard Error
T2 construct: from tissue; host or cells: rat cortex or lumbar spinal cord homogenate from dosed animals
T2 sequence (Q63380 1-617): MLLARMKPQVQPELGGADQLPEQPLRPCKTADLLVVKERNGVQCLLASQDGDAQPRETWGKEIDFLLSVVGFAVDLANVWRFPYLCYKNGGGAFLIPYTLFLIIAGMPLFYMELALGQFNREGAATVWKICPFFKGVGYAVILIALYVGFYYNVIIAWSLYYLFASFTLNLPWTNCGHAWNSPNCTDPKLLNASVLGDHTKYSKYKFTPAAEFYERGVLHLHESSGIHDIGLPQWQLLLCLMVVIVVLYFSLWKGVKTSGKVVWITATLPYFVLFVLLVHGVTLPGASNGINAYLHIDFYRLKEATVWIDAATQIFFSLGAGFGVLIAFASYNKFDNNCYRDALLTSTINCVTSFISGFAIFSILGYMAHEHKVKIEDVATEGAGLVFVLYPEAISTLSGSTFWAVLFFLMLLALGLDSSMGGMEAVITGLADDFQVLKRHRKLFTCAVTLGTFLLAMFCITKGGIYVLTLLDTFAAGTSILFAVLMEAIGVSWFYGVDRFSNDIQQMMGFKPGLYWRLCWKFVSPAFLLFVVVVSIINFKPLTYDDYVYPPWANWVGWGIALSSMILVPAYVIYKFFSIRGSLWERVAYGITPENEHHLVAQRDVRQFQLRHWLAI
Text: as §1
The spinal cord was harvested by hydraulic extrusion with PBS. An 18 gauge needle was inserted into the spinal column near the iliac crest and the buffer injected into the spinal column with the resultant extrusion of the spinal cord, intact. […]
as §2
Specific binding was calculated using total (in the absence of test compound) and non-specific (determined as described above) binding from the same plate as follows: specific binding=value−non-specific binding. […]

hSERT = hSERT (Homo sapiens, UniProt P31645); experiment: 3H-5-HT neurotransmitter uptake assay in HEK-293 cells expressing hSERT
Chain of hSERT (P31645 whole entry): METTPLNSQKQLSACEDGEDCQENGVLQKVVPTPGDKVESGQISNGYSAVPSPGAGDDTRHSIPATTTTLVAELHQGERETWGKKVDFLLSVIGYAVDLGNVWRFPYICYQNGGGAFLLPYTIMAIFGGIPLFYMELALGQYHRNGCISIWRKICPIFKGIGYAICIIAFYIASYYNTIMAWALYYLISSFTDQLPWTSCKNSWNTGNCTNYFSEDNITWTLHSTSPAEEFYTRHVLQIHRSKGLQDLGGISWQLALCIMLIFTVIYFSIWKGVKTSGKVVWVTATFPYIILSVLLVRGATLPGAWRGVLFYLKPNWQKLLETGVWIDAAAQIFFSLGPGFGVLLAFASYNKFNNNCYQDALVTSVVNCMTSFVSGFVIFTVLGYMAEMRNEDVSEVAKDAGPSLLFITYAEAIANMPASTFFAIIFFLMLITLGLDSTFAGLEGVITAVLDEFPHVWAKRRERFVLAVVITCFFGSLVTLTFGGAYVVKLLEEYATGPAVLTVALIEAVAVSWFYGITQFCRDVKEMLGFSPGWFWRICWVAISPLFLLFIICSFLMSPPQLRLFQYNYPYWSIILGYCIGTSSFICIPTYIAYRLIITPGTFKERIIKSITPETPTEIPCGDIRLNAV
Experimental: as §3
HEK-293 derived cell lines stably-transfected with hSERT or, hNET, respectively, were grown in Dulbecco's modified Eagles Medium (DMEM) supplemented with 10% dialyzed FBS (for hSERT) or FBS (for hNET), 100 μg/ml penicillin, 100 μg/ml streptomycin, 2 mM L-glutamine and 250 μg/ml of the aminoglycoside antibiotic G418 in a 5% CO2 humidified incubator at 37° C. […]
as §4

NET [2] = experiment: 3H-NE uptake assay in rat brain synaptosomal preparations
Text: as §3
(§5) Rats were euthanized by decapitation. Rat freshly dissected cortical tissue pieces were suspended in ice-cold Sucrose Buffer at a ratio of 100 mg wet weight of tissue per 1 mL of buffer. The tissues were homogenized using a pre-chilled glass dounce homogenizer for 20 strokes. The homogenate was centrifuged at 1,000×g (10 min at 4° C.). The pellet was discarded and the resulting supernatant was centrifuged at 10,000×g (20 min at 4° C.) to obtain the crude synaptosomal pellet. Synaptosomes were resuspended in Sucrose Buffer and the protein concentration was determined by the method of Bradford (Bradford (1976) Analytical Biochemistry 72:24854) and used immediately following preparation.
(§6) Neurotransmitter uptake assays were performed in a 96-well assay plate in a total volume of 400 μg containing 1.5×10^4 and 2.5×10^4 cells, for SERT and NET, respectively or 10 μg cortical synaptosomal protein in assay buffer (Krebs-Ringer bicarbonate buffer containing HEPES (10 mM), CaCl2 (2.2 mM), ascorbic acid (200 μM) and pargyline (200 μM), pH 7.4). […]
as §4

NET [3] = molecular target: NET (Rattus norvegicus, UniProt Q63380); experiment: as above; details: Rat brain synaptosomes, 3H-NE uptake
Chain of NET (Rattus norvegicus, UniProt Q63380) (Q63380 1-617): as the sequence (Q63380 1-617) above
Text: as §3, §5, §6, §4

For CNCC[C@@H](Oc1ccccc1C)c1ccccc1 [Atomoxetine, atomoxetine, reference compound], the “SNRI Dose Response ED50 (Confidence Interval)” value (rat formalin pain model; rat formalin model) was 24.4 (14.5-41.1) (n = 6-12) mg/kg, the “Plasma concentrations of SNRI alone versus in combination with morphine” value [1] was “equivalent” and the receptor occupancy at 3 mg/kg (rat SERT; cortex) was 35 ± 9%. The receptor occupancy at 10 mg/kg (rat SERT; cortex) was 64 ± 5%.

In the case of Fc1cc(F)c(OCc2ccccc2C2CCNCC2)c(F)c1 [Compound 1, 4-[2-(2,4,6-trifluoro-phenoxymethyl)-phenyl]-piperidine], the inhibition at 10 mg/kg (rat formalin pain model; Rattus norvegicus, single administration of 10 mg/kg compound 1 IP, mean±SEM, read-out: inhibition of flinching behavior) is reported as 20 ± 7%, the “pain behavior during phase 1” value (rat formalin pain model; first 10 minutes post formalin injection (acute pain processing)) is reported as “Decreases in pain behavior were also observed” and the “SNRI Dose Response ED50 (Confidence Interval)” value (rat formalin pain model; rat formalin model) is reported as 20.0 (14.0-28.4) mg/kg. For the same compound, the “interaction with morphine (shift of morphine dose response curve)” value (rat formalin pain model; rat formalin model, 3 mg/kg IP compound 1 plus morphine SC, 3 mg/kg) was “failed to significantly shift the morphine dose response curve”, the “interaction with oxycodone (ED50 shift, isobolographic analysis)” value (rat formalin pain model; rat formalin model, 10 mg/kg IP compound 1 plus oxycodone SC) was “synergistic interaction” and the “interaction with morphine (ED50 shift, isobolographic analysis)” value (rat formalin pain model; rat formalin model, compound 1 or atomoxetine 10 mg/kg IP, duloxetine 3, 5 or 10 mg/kg IP, morphine SC) was “synergistic interaction”. For the same compound, the “Plasma concentrations of SNRI alone versus in combination with morphine” value [1] was “equivalent”, the IC50 (hNET) was 2.51 nM and the NET selectivity (hNET) was 4. For the same compound, the “selectivity for NET (ratio of SERT to NET IC50 values)” value (hNET; human recombinant cell-based assay) was “about 4 fold”, the IC50 (SERT) was 12.6 nM and the receptor occupancy at 3 mg/kg (rat SERT; lumbar spinal cord) was 23 ± 14%. It also gave a receptor occupancy at 10 mg/kg (rat SERT; lumbar spinal cord) of 46 ± 20%, a receptor occupancy at 3 mg/kg (rat NET; 3 mg/kg IP) of 77 ± 15% and a receptor occupancy at 10 mg/kg (rat NET; 10 mg/kg IP) of 81 ± 6%. For the same compound, the IC50 (hSERT) was 10 nM, the NET selectivity (NET [2]; Rat brain synaptosomes, 10**(NET pIC50 − SERT pIC50)) was 10 and the “selectivity for NET (ratio of SERT to NET IC50 values)” value (NET [2]; rat brain synaptosomal preparations) was “about 10 fold”. The “NET pIC50” value (NET [3]) was 8.9.

With COc1ccc2c3c1O[C@H]1C(=O)CC[C@@]4(O)[C@@H](C2)N(C)CC[C@]314 [Oxycodone, oxycodone] the “Plasma concentrations alone versus combination of compound 1 and oxycodone” value ([1]; compound 1 10 mg/kg IP, oxycodone 3 mg/kg SC) was “equivalent”.

CN1CC[C@]23c4c5ccc(O)c4O[C@H]2[C@@H](O)C=C[C@H]3[C@H]1C5 [Morphine, morphine, reference compound] showed an inhibition at 1 mg/kg (rat formalin pain model; Rattus norvegicus, sc, read-out: inhibition of flinching behavior) of 13 ± 11%.

For CNCC[C@H](Oc1cccc2ccccc12)c1cccs1 [Duloxetine, duloxetine, reference compound], the morphine sparing effect (rat formalin pain model; duloxetine 5 mg/kg IP co-administered with ondansetron 3 mg/kg IP, with morphine 1 mg/kg SC) was “a morphine sparing effect was observed” and the “inhibition of flinching behavior (in words)” value (rat formalin pain model; single administration of 10 mg/kg duloxetine) was “significant inhibition of flinching behavior”.
